{
  "source": "paper PMC10141580",
  "about": "“Cyclic Dichalcogenides Extend the Reach of Bioreductive Prodrugs to Harness Thiol/Disulfide Oxidoreductases: Applications to seco-Duocarmycins Targeting the Thioredoxin System” (ACS Central Science, 2023)",
  "test_system": "panel of 140 standard cancer cell lines",
  "experiment": "ProliFiler-140 cancer cell line screen (CellTiterGlo, 72 h)",
  "format": "cell-based",
  "experimental": "Incubations were performed for 72 h before automated viability readout with CellTiterGlo (Figure 8).\nEnd of Figure S11 (part 5 of 5): ProliFiler-140 cancer cell line screening for cytotoxicity of the prodrugs.\n8-data-point dose response curves from CellTiter-Glo® viability readout.\nProliFiler-140 cell line panel part V",
  "note": "Read-outs that look alike come from different tables or passages of the source.",
  "data": [
    {"smiles": "COc1cccc2c1C(=O)c1c(O)c3c(c(O)c1C2=O)C[C@@](O)(C(=O)CO)C[C@@H]3O[C@H]1C[C@H](N)[C@H](O)[C@H](C)O1", "note": "[doxorubicin, reference compound]", "values": [
      {"measurement": "IC50", "setting": "Homo sapiens, NCI-H2009, NCI-H2009 (Lung), read-out: IC50 [M] (ProliFiler-140)", "result": "1.41e-07", "unit": "M"},
      {"measurement": "IC50", "setting": "Homo sapiens, NCI-H2228, H2228 (Lung), read-out: IC50 [M] (ProliFiler-140)", "result": "5.73e-08", "unit": "M"},
      {"measurement": "IC50", "setting": "Homo sapiens, NCI-H2286, NCI-H2286 (Lung), read-out: IC50 [M] (ProliFiler-140)", "result": "4.4e-08", "unit": "M"},
      {"measurement": "IC50", "setting": "Homo sapiens, NCI-N87, NCI-N87 (Stomach), read-out: IC50 [M] (ProliFiler-140)", "result": "2e-07", "unit": "M"},
      {"measurement": "IC50", "setting": "Homo sapiens, OCI-AML-3, OCI-AML3 (Blood), read-out: IC50 [M] (ProliFiler-140)", "result": "7.6e-08", "unit": "M"},
      {"measurement": "IC50", "setting": "Homo sapiens, OCI-AML-5, OCI-AML5 (Blood), read-out: IC50 [M] (ProliFiler-140)", "result": "3.1e-08", "unit": "M"},
      {"measurement": "IC50", "setting": "Homo sapiens, OCI-LY19, OCI-LY19 (Blood), read-out: IC50 [M] (ProliFiler-140)", "result": "5.55e-09", "unit": "M"},
      {"measurement": "IC50", "setting": "Homo sapiens, OPM-2, OPM-2 (Blood), read-out: IC50 [M] (ProliFiler-140)", "result": "2.43e-07", "unit": "M"},
      {"measurement": "IC50", "setting": "Homo sapiens, OVCAR-3, OVCAR-3 (Ovary), read-out: IC50 [M] (ProliFiler-140)", "result": "3.7e-07", "unit": "M"},
      {"measurement": "IC50", "setting": "Homo sapiens, OVCAR-3, OVCAR-3, read-out: IC50", "result": "3.7e-07", "unit": "M"},
      {"measurement": "IC50", "setting": "Homo sapiens, P31-FUJ, P31/FUJ (Blood), read-out: IC50 [M] (ProliFiler-140)", "result": "1e-07", "unit": "M"},
      {"measurement": "IC50", "setting": "Homo sapiens, PANC-1, PANC-1 (Pancreas), read-out: IC50 [M] (ProliFiler-140)", "result": "8e-07", "unit": "M"},
      {"measurement": "IC50", "setting": "Homo sapiens, RL95-2, RL95-2 (Endometrium), read-out: IC50 [M] (ProliFiler-140)", "result": "1.97e-07", "unit": "M"},
      {"measurement": "IC50", "setting": "Homo sapiens, RPMI-8226, RPMI 8226 (Blood), read-out: IC50 [M] (ProliFiler-140)", "result": "8.84e-08", "unit": "M"},
      {"measurement": "IC50", "setting": "Homo sapiens, SAOS-2, Saos-2 EC (Bone), read-out: IC50 [M] (ProliFiler-140)", "result": "2.02e-07", "unit": "M"},
      {"measurement": "IC50", "setting": "Homo sapiens, SCLC-21H, SCLC-21H (Lung), read-out: IC50 [M] (ProliFiler-140)", "result": "2.91e-07", "unit": "M"},
      {"measurement": "IC50", "setting": "Homo sapiens, SJSA-1, SJSA-1 (Bone), read-out: IC50 [M] (ProliFiler-140)", "result": "4.01e-07", "unit": "M"},
      {"measurement": "IC50", "setting": "Homo sapiens, SK-BR-3, SK-BR-3 (Breast), read-out: IC50 [M] (ProliFiler-140)", "result": "1.3e-07", "unit": "M"},
      {"measurement": "IC50", "setting": "Homo sapiens, SK-ES1, SK-ES-1 (Bone), read-out: IC50 [M] (ProliFiler-140)", "result": "2.61e-08", "unit": "M"},
      {"measurement": "IC50", "setting": "Homo sapiens, SK-LU-1, SK-LU-1 (Lung), read-out: IC50 [M] (ProliFiler-140)", "result": "2.7e-07", "unit": "M"},
      {"measurement": "IC50", "setting": "Homo sapiens, SK-MEL3, SK-MEL-3 (Skin), read-out: IC50 [M] (ProliFiler-140)", "result": "5.1e-07", "unit": "M"},
      {"measurement": "IC50", "setting": "Homo sapiens, SK-N-FI, SK-N-FI (Brain), read-out: IC50 [M] (ProliFiler-140)", "result": "1.36e-06", "unit": "M"},
      {"measurement": "IC50", "setting": "Homo sapiens, SK-N-MC, SK-N-MC (Brain), read-out: IC50 [M] (ProliFiler-140)", "result": "1.5e-08", "unit": "M"},
      {"measurement": "IC50", "setting": "Homo sapiens, SK-N-SH, SK-N-SH (Brain), read-out: IC50 [M] (ProliFiler-140)", "result": "9.8e-08", "unit": "M"},
      {"measurement": "IC50", "setting": "Homo sapiens, SK-OV-3, SK-OV3 (Ovary), read-out: IC50 [M] (ProliFiler-140)", "result": "1.76e-07", "unit": "M"},
      {"measurement": "IC50", "setting": "Homo sapiens, SNU1, SNU-1 (Stomach), read-out: IC50 [M] (ProliFiler-140)", "result": "5.9e-08", "unit": "M"},
      {"measurement": "IC50", "setting": "Homo sapiens, SNU-16, SNU-16 (Stomach), read-out: IC50 [M] (ProliFiler-140)", "result": "1.37e-07", "unit": "M"},
      {"measurement": "IC50", "setting": "Homo sapiens, SU-DHL-5, SU-DHL-5 (Blood), read-out: IC50 [M] (ProliFiler-140)", "result": "9.1e-09", "unit": "M"},
      {"measurement": "IC50", "setting": "Homo sapiens, SW480, SW480 (Colon), read-out: IC50 [M] (ProliFiler-140)", "result": "1.2e-07", "unit": "M"},
      {"measurement": "IC50", "setting": "Homo sapiens, SW948, SW948 (Colon), read-out: IC50 [M] (ProliFiler-140)", "result": "3.46e-07", "unit": "M"},
      {"measurement": "IC50", "setting": "Homo sapiens, SW1783, SW-1783 (Brain), read-out: IC50 [M] (ProliFiler-140)", "result": "2.99e-07", "unit": "M"},
      {"measurement": "IC50", "setting": "Homo sapiens, SW-620, SW620 (Colon), read-out: IC50 [M] (ProliFiler-140)", "result": "3.06e-07", "unit": "M"},
      {"measurement": "IC50", "setting": "Homo sapiens, SiHa, SiHa (Ovary), read-out: IC50 [M] (ProliFiler-140)", "result": "1.47e-07", "unit": "M"},
      {"measurement": "IC50", "setting": "Homo sapiens, T47D, T-47D (Breast), read-out: IC50 [M] (ProliFiler-140)", "result": "4.3e-07", "unit": "M"},
      {"measurement": "IC50", "setting": "Homo sapiens, T98G, T98G (Brain), read-out: IC50 [M] (ProliFiler-140)", "result": "1.17e-06", "unit": "M"},
      {"measurement": "IC50", "setting": "Homo sapiens, U2OS, U2OS (Bone), read-out: IC50 [M] (ProliFiler-140)", "result": "1.14e-07", "unit": "M"},
      {"measurement": "IC50", "setting": "Homo sapiens, U-87 MG, U87MG (Brain), read-out: IC50 [M] (ProliFiler-140)", "result": "1.6e-07", "unit": "M"},
      {"measurement": "IC50", "setting": "Homo sapiens, U-118-MG, U118MG (Brain), read-out: IC50 [M] (ProliFiler-140)", "result": "2.57e-07", "unit": "M"},
      {"measurement": "IC50", "setting": "Homo sapiens, U-251, U251MG (Brain), read-out: IC50 [M] (ProliFiler-140)", "result": "7.8e-07", "unit": "M"},
      {"measurement": "IC50", "setting": "Homo sapiens, U-266, U-266 (Blood), read-out: IC50 [M] (ProliFiler-140)", "result": "1.11e-07", "unit": "M"},
      {"measurement": "IC50", "setting": "Homo sapiens, U-937, U-937 (Blood), read-out: IC50 [M] (ProliFiler-140)", "result": "2.57e-08", "unit": "M"},
      {"measurement": "IC50", "setting": "Homo sapiens, ZR-75-1, ZR-75-1 (Breast), read-out: IC50 [M] (ProliFiler-140)", "result": "1.35e-06", "unit": "M"},
      {"measurement": "IC50", "setting": "Ishikawa (Endometrium), listed as Dox, read-out: IC50 [M] (ProliFiler-140)", "result": "7.74e-08", "unit": "M"},
      {"measurement": "IC50", "setting": "J82 (Bladder), read-out: IC50 [M] (ProliFiler-140)", "result": "7.98e-07", "unit": "M"},
      {"measurement": "IC50", "setting": "JIMT-1 (Breast), listed as Dox, read-out: IC50 [M] (ProliFiler-140)", "result": "1.29e-06", "unit": "M"},
      {"measurement": "IC50", "setting": "Jurkat (Blood), listed as Dox, read-out: IC50 [M] (ProliFiler-140)", "result": "4e-08", "unit": "M"},
      {"measurement": "IC50", "setting": "K562 (Blood), listed as Dox, read-out: IC50 [M] (ProliFiler-140)", "result": "4.42e-07", "unit": "M"},
      {"measurement": "IC50", "setting": "KG-1 (Blood), read-out: IC50 [M] (ProliFiler-140)", "result": "1.21e-06", "unit": "M"},
      {"measurement": "IC50", "setting": "KG-1 a (Blood), listed as Dox, read-out: IC50 [M] (ProliFiler-140)", "result": "4.9e-07", "unit": "M"},
      {"measurement": "IC50", "setting": "Kato III (Stomach), listed as Dox, read-out: IC50 [M] (ProliFiler-140)", "result": "8.99e-07", "unit": "M"},
      {"measurement": "IC50", "setting": "LN229 (Brain), listed as Dox, read-out: IC50 [M] (ProliFiler-140)", "result": "2.2e-07", "unit": "M"},
      {"measurement": "IC50", "setting": "LOU-NH91 (Lung), listed as Dox, read-out: IC50 [M] (ProliFiler-140)", "result": "2.89e-07", "unit": "M"},
      {"measurement": "IC50", "setting": "LOU-NH91, LOU-NH91 (Lung), read-out: IC50 [M] (ProliFiler-140)", "result": "2.9e-07", "unit": "M"},
      {"measurement": "IC50", "setting": "LP-1 (Blood), listed as Dox, read-out: IC50 [M] (ProliFiler-140)", "result": "6.62e-07", "unit": "M"},
      {"measurement": "IC50", "setting": "LP-1 (Blood), read-out: IC50 [M] (ProliFiler-140)", "result": "6.6e-07", "unit": "M"},
      {"measurement": "IC50", "setting": "LnCap (Prostate), listed as Dox, read-out: IC50 [M] (ProliFiler-140)", "result": "1.92e-07", "unit": "M"},
      {"measurement": "IC50", "setting": "M07e (Blood), listed as Dox, read-out: IC50 [M] (ProliFiler-140)", "result": "4.6e-08", "unit": "M"},
      {"measurement": "IC50", "setting": "M-07e, M07e (Blood), read-out: IC50 [M] (ProliFiler-140)", "result": "4.63e-08", "unit": "M"}
    ]}
  ]
}
